Assay results from ChEMBL document CHEMBL4321836, “Discovery of BAY-298 and BAY-899: Tetrahydro-1,6-naphthyridine-Based, Potent, and Selective Antagonists of the Luteinizing Hormone Receptor Which Reduce Sex Hormone Levels in Vivo” (J Med Chem, 2019).
pIC50: −log10 of the molar value. Activity calls are given as the source filed them. The rule behind the calls is not given here.

Legend:
[1] = Clearance in human liver microsomes at 1 uM measured after 2 to 60 mins in presence of glucose-6-phosphate by LC-MS/MS analysis; type: ADME, Microsome
[2] = Lipophilicity, logD of the compound at pH 7.5 by reversed-phase HPLC; type: physicochemical; settings: buffer
[3] = Maximum oral bioavailability in human liver microsomes based well stirred liver model at 1 uM measured after 2 to 60 mins in presence of glucose-6-phosphate by LC-MS/MS analysis; type: ADME, Microsome; settings: read-out: Fmax
[4] = biological target: T1, Lutropin-choriogonadotropic hormone receptor (Homo sapiens, UniProt P22888); experiment: Antagonist activity at human luteinizing hormone receptor assessed as reduction in agonist-induced cAMP production preincubated for 20 mins followed by agonist solution addition after 60 mins by cell based TR-FRET assay; type: functional
[5] = biological target: Lutropin-choriogonadotropic hormone receptor (Mus musculus, UniProt P30730); experiment: Antagonist activity at luteinizing hormone receptor in mouse MLTC-1 cells assessed as reduction in agonist-induced cAMP production preincubated for 30 mins followed by agonist solution addition and measured after 30 mins by cell based TR-FRET assay; type: functional
[6] = biological target: T2, Follicle-stimulating hormone receptor (Homo sapiens, UniProt P23945); experiment: Antagonist activity at human follicle stimulating hormone receptor assessed as reduction in agonist-induced cAMP production preincubated for 20 mins followed by agonist solution addition and measured after 120 mins by cell based TR-FRET assay; type: functional
T2 sequence (P23945 whole entry): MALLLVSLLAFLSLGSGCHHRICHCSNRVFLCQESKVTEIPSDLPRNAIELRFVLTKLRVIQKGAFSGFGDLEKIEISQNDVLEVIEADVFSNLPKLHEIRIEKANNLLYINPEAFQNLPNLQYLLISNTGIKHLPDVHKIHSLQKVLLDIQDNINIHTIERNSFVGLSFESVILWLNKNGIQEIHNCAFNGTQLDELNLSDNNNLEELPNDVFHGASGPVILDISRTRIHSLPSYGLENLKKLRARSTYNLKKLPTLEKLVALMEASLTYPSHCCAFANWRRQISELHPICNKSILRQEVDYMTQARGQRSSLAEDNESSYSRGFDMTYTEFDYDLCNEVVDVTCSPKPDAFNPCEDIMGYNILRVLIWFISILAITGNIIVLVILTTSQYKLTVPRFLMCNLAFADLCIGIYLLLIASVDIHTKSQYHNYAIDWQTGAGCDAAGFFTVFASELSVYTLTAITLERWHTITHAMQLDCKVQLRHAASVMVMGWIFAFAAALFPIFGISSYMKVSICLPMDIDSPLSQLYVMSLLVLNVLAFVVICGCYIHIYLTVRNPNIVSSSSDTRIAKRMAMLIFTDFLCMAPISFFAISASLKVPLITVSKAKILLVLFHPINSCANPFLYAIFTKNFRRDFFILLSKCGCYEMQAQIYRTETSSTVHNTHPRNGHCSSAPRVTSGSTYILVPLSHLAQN

[7] = biological target: Lutropin-choriogonadotropic hormone receptor (Rattus norvegicus, UniProt P16235); experiment: Antagonist activity at rat luteinizing hormone receptor expressed in rat ovary granulosa GLHR15 cell suspension assessed as reduction in agonist-induced cAMP production preincubated for 30 mins followed by agonist solution addition after 30 mins by cell based TR-FRET assay; type: functional
Thyrotropin receptor = Thyrotropin receptor (Homo sapiens, UniProt P16473); experiment: Antagonist activity at human thyroid stimulating hormone receptor expressed in rat HTC133 cells assessed as reduction in agonist-induced cAMP production preincubated for 20 mins followed by agonist solution addition and measured after 60 mins by cell based TR-FRET assay; type: functional
[8] = biological target: T1, Lutropin-choriogonadotropic hormone receptor; experiment: Agonist activity at human luteinizing hormone receptor incubated for 60 mins by cell based TR-FRET assay; settings: human, 1 h
[9] = biological target: Relaxin receptor 1 (Homo sapiens) (UniProt Q9HBX9); experiment: Antagonist activity at human RXFP1 assessed as reduction in agonist-induced cAMP production preincubated for 20 mins followed by mutRelaxin agonist addition measured after 60 mins by cell based TR-FRET assay; type: functional
Sequence of Relaxin receptor 1 (Homo sapiens) (Q9HBX9 whole entry): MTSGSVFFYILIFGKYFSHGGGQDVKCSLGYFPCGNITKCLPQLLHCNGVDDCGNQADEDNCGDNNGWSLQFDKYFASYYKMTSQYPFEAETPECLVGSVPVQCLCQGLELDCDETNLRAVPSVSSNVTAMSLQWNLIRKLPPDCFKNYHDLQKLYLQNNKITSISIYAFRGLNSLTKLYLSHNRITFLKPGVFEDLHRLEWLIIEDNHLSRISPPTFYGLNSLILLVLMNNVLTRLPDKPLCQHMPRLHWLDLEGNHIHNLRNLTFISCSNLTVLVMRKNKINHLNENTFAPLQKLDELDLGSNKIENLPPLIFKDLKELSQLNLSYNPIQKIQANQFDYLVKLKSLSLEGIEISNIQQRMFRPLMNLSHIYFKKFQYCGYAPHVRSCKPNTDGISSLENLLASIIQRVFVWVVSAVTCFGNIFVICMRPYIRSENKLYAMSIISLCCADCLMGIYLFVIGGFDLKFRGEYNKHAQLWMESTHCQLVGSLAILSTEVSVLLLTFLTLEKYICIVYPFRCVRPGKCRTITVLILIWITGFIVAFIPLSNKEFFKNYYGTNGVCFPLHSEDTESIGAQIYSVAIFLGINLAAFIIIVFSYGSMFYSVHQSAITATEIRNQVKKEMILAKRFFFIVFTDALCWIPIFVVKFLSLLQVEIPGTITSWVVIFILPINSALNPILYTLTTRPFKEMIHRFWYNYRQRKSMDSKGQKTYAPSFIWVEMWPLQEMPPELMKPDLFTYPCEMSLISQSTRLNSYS

Sequence of Lutropin-choriogonadotropic hormone receptor (Mus musculus, UniProt P30730) (P30730 whole entry): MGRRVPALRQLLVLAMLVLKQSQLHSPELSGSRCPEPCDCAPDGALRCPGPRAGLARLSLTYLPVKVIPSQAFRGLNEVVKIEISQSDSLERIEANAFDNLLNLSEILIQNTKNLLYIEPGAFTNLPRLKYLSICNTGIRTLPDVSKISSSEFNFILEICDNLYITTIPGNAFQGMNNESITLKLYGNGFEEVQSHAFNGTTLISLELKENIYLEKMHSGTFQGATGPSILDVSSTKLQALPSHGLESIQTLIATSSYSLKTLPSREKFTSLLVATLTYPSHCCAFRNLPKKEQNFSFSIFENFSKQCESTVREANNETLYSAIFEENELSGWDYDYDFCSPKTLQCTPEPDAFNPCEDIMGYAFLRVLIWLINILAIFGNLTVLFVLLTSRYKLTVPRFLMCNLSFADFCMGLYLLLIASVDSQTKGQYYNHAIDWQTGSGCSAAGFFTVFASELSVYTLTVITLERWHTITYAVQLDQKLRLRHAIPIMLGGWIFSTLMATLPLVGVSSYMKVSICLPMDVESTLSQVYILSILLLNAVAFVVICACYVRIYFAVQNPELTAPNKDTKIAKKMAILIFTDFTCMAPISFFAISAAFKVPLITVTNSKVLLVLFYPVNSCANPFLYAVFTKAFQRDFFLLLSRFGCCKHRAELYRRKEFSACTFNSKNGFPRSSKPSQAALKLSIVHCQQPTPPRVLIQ
Sequence of Lutropin-choriogonadotropic hormone receptor (Rattus norvegicus, UniProt P16235) (P16235 whole entry): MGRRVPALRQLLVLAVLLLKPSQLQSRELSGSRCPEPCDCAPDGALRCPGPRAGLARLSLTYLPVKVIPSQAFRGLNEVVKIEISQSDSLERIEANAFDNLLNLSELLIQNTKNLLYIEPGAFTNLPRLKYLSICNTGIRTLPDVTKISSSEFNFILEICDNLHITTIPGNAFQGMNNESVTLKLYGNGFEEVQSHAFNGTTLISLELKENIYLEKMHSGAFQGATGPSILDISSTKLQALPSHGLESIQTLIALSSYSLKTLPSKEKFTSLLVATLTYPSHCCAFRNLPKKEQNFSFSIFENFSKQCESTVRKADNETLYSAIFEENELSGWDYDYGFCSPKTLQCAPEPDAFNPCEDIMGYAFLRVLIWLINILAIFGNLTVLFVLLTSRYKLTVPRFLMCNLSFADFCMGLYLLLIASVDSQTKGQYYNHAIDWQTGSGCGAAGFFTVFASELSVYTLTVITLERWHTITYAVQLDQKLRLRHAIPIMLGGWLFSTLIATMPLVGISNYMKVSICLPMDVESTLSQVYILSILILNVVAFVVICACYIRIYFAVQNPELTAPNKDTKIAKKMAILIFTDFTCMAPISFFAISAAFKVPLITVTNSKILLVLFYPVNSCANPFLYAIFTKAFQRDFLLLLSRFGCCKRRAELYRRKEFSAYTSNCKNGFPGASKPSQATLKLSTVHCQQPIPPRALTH
Sequence of Thyrotropin receptor (P16473 whole entry): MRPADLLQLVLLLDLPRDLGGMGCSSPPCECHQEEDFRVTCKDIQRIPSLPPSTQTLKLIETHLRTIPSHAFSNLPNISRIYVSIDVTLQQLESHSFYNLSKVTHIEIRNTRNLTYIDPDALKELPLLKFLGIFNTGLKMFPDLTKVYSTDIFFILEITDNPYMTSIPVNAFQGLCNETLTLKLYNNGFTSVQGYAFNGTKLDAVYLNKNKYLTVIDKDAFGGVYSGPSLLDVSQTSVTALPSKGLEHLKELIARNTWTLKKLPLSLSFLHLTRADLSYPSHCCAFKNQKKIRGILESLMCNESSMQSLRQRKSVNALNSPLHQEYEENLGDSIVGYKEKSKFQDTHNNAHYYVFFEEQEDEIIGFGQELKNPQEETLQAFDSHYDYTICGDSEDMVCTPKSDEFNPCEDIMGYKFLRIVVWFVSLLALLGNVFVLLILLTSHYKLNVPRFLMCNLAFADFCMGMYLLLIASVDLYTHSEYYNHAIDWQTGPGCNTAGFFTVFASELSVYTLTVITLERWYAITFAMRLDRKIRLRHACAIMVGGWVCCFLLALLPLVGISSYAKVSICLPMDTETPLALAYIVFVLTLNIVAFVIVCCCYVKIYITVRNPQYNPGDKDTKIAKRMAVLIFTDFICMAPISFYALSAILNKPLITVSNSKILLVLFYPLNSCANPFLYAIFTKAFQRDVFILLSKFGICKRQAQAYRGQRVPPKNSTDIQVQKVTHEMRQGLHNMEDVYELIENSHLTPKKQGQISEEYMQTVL
T1 sequence (P22888 whole entry): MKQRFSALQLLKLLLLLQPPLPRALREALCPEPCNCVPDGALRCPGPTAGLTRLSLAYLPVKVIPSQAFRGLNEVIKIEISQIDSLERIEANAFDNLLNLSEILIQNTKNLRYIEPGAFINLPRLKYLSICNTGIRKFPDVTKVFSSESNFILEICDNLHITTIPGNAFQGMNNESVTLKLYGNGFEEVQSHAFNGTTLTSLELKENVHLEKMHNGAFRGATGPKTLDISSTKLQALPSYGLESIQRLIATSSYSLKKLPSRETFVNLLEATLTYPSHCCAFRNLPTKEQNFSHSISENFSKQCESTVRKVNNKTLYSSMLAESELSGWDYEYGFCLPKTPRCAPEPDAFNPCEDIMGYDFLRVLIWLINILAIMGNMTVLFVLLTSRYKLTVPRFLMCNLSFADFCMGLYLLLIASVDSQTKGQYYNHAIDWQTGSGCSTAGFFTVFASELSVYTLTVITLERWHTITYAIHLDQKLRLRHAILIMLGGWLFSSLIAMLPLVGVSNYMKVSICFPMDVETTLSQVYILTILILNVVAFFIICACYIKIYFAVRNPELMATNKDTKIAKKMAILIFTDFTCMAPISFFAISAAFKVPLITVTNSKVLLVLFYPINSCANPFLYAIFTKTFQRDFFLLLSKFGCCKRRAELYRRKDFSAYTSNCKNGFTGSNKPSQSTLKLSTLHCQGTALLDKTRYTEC

CLhep predicted at 1 µM [1]	chromatographic logD [2]	Fh at 1 µM [3]	pIC50 [4]	SMILES	further results
18.3 mL/min/kg	3.9	18%	6.97	COc1ccc(C2c3ccsc3CCN2C(=O)Nc2ccc(Cl)cc2)cc1 (racemic)	–
13.3 mL/min/kg	5.2	42%	7.09	O=C(Nc1ccc(F)c(OC(F)(F)F)c1)N1CCc2sccc2C1c1ccc(Cl)cc1 (racemic)	–
–	–	–	6.39	COc1ccc([C@H]2c3ccsc3CCN2C(=O)Nc2cc(Cl)cc(Cl)c2)cc1	pIC50 [5]: < 4.52; pIC50 [6]: < 4.78; pIC50 [7]: 6.39; pIC50 (Thyrotropin receptor): < 4.52
5 mL/min/kg	3.9	75%	6.99	O=C(Nc1ccc(Oc2ccc(F)cc2)cc1)N1CCc2ncccc2[C@@H]1c1ccc(F)cc1	–
–	–	–	5.79	O=C(Nc1cc(Cl)cc(Cl)c1)N1CCc2sccc2C1c1ccccc1 (racemic)	–
16.7 mL/min/kg	4	26%	7.02	O=C(Nc1ccccc1)N1CCc2sccc2C1c1ccc(Cl)cc1 (racemic)	–
–	3.1	–	< 4.78	COc1ccc(C2c3ccsc3CCN2C(=O)Nc2ccc(F)c(N3CCS(=O)(=O)CC3)c2)cc1 (racemic)	–
–	3.7	–	< 4.78	NC(=O)c1ccc(C2c3ccsc3CCN2C(=O)Nc2cc(Cl)cc(Cl)c2)cc1 (racemic)	–
–	–	–	6.71	COc1cc(NC(=O)N2CCc3sccc3[C@@H]2c2ccccc2)cc(OC)c1	–
–	5.1	–	6.76	O=C(Nc1ccc(F)c(Cl)c1)N1CCc2sccc2C1c1ccc(Cl)cc1 (racemic)	–
13.3 mL/min/kg	–	40%	5.73	O=C(Nc1cc(Cl)cc(Cl)c1)N1CCc2sccc2C1c1ccc(F)c(F)c1 (racemic)	–
–	–	–	< 4.78	O=C(Nc1cc(Cl)cc(Cl)c1)N1CCc2sccc2C1c1ccccn1 (racemic)	–
21.7 mL/min/kg	5	3%	6.42	COc1ccc(C2c3ccsc3CCN2C(=O)Nc2cc(Cl)cc(Cl)c2)cc1 (racemic)	pIC50 [5]: < 4.52; pIC50 [6]: < 4.78; pIC50 [7]: 6.67; pIC50 (Thyrotropin receptor): < 4.52; Activity [8]: Not Active; inhibition [9]: inactive
–	–	–	< 4.78	Cc1ccccc1C1c2ccsc2CCN1C(=O)Nc1cc(Cl)cc(Cl)c1 (racemic)	–
11.7 mL/min/kg	–	51%	5.44	O=C(Nc1cc(Cl)cc(Cl)c1)N1CCc2sccc2C1c1ccc(C(F)(F)F)cc1 (racemic)	–
–	3.7	–	5.64	O=C(Nc1cc(Cl)cc(Cl)c1)N1CCc2sccc2C1c1ccc(=O)[nH]c1 (racemic)	–
20 mL/min/kg	5.5	8%	5.58	Cc1ccc(C2c3ccsc3CCN2C(=O)Nc2cc(Cl)cc(Cl)c2)cc1 (racemic)	–

CLhep predicted at 1 µM [1]	chromatographic logD [2]	Fh at 1 µM [3]	pIC50 [4]	SMILES	further results
–	–	–	5.17	COc1ccc([C@@H]2c3ccsc3CCN2C(=O)Nc2cc(Cl)cc(Cl)c2)cc1	pIC50 [5]: < 4.52; pIC50 [6]: < 4.78; pIC50 [7]: 5.31; pIC50 (Thyrotropin receptor): < 4.52
–	2.8	–	5.77	COc1ccc(C2c3ccsc3CCN2C(=O)Nc2ccc(F)c(C(N)=O)c2)cc1 (racemic)	–
–	4.2	–	5.29	O=C(Nc1cc(Cl)cc(Cl)c1)N1CCc2sccc2C1c1ccncc1 (racemic)	–
11.7 mL/min/kg	–	48%	6.31	O=C(Nc1cc(Cl)cc(Cl)c1)N1CCc2sccc2C1c1ccc(Cl)cc1 (racemic)	–
–	4.8	–	< 4.80	COc1ccc(C2c3ccsc3CCN2C(=O)Cc2cc(C)cc(C)c2)cc1 (racemic)	–
–	3.7	–	5.48	COc1ccc(C2c3ccsc3CCN2C(=S)Nc2cc(OC)cc(OC)c2)cc1 (racemic)	–
20 mL/min/kg	4.2	11%	5.13	O=C(Nc1cc(Cl)cc(Cl)c1)N1CCc2sccc2C1c1cccnc1 (racemic)	–
–	4.1	–	6.24	COc1ccc(C2c3ccsc3CCN2C(=O)Nc2cc(C)cc(C)c2)cc1 (racemic)	–
–	5.1	–	5.50	O=C(Nc1cc(Cl)cc(Cl)c1)N1CCc2sccc2C1c1cccc(F)c1 (racemic)	–
21.7 mL/min/kg	3.6	3%	6.68	COc1ccc(C2c3ccsc3CCN2C(=O)Nc2cc(OC)cc(OC)c2)cc1 (racemic)	–
10 mL/min/kg	5.3	56%	6.90	O=C(Nc1ccc(Oc2ccc(F)cc2)cc1)N1CCc2sccc2C1c1ccc(Cl)cc1 (racemic)	–
–	5.4	–	6.48	O=C(Nc1cccc(Oc2ccccc2)c1)N1CCc2sccc2C1c1ccc(Cl)cc1 (racemic)	–
18.3 mL/min/kg	4.8	17%	5.49	O=C(Nc1cc(Cl)cc(Cl)c1)N1CCc2sccc2C1c1ccccc1F (racemic)	–
20 mL/min/kg	4.2	7%	6.56	COc1ccc(C2c3ccsc3CCN2C(=O)Nc2cccc(Cl)c2)cc1 (racemic)	–
–	–	–	< 4.78	CC(C)c1ccc(C2c3ccsc3CCN2C(=O)Nc2cc(Cl)cc(Cl)c2)cc1 (racemic)	–
3.33 mL/min/kg	3.2	83%	6.51	O=C(Nc1ccc(Oc2ccc(F)cc2)nc1)N1CCc2ncccc2[C@@H]1c1ccc(F)cc1	–
